Source: publication PMC10947015, “Constraining and Modifying Peptides Using Pd‐Mediated Cysteine Allylation” (Chembiochem, 2023)
pKd: −log10 of the molar value. Like-named read-outs stand apart in the source and are kept apart here. Starred links: 1 amine or outer side, 2 acyl side, 3 side chain; linkers in the order of their positions; H or OH if unused. Positions of bridges follow the written chain, without caps; N, C: chain ends. Non-standard residues stand in square brackets, D forms with d. Residues, ends and D or L forms follow the SMILES beside them. Groups on a side chain read outwards from the residue. *: point of attachment. X1 = O=C(CCCC[C@@H]1SC[C@@H]2NC(=O)N[C@@H]21)NCCCOCCOCCOCCCN*; Tyr(3-NO2) = N[C@@H](Cc1ccc(O)c([N+](=O)[O-])c1)C(=O)O; Glutaryl = O=C(CCCC(=O)[*:2])[*:1]; Hyp = O=C(O)[C@@H]1C[C@@H](O)CN1; X2 = C(=C/C[*:2])/C[*:1]; X3 = C(#CC[*:2])C[*:1]

Biological target: T1, integrin α3β1 (Homo sapiens, UniProt P05556+P26006)
T1 construct: integrin α3β1 expressed on human MDA‐MB231 cells; endogenous in cells; host or cells: MDA-MB231 (human)
T1 sequence (P26006 33-872 limits assumed): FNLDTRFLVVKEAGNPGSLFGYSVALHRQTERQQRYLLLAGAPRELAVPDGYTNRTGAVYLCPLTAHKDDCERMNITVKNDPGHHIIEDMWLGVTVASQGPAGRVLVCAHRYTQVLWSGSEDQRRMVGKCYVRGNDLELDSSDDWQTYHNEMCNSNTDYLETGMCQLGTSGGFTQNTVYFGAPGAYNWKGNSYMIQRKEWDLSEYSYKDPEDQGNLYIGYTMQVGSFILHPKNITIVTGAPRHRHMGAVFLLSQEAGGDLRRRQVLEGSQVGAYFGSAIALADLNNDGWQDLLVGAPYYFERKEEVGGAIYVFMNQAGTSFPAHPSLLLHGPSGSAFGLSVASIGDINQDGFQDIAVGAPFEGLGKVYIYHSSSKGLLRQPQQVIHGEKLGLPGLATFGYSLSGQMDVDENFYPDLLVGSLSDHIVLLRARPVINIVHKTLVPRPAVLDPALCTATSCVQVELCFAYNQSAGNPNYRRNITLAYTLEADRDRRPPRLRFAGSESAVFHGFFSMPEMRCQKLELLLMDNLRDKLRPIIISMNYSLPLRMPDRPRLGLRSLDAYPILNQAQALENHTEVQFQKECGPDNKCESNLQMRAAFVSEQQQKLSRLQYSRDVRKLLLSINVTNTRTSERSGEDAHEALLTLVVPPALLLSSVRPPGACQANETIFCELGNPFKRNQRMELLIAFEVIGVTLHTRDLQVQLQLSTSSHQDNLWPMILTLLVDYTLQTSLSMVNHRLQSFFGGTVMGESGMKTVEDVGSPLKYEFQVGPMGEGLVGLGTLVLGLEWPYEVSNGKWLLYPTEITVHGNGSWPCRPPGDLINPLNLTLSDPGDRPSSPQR
T1 sequence (P26006 878-1051 limits assumed): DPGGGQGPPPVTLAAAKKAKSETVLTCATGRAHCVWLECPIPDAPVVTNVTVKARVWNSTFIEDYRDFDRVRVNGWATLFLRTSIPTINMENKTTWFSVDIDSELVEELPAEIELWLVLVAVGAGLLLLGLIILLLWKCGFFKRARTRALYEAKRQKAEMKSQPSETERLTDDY
T1 sequence (P05556 21-798): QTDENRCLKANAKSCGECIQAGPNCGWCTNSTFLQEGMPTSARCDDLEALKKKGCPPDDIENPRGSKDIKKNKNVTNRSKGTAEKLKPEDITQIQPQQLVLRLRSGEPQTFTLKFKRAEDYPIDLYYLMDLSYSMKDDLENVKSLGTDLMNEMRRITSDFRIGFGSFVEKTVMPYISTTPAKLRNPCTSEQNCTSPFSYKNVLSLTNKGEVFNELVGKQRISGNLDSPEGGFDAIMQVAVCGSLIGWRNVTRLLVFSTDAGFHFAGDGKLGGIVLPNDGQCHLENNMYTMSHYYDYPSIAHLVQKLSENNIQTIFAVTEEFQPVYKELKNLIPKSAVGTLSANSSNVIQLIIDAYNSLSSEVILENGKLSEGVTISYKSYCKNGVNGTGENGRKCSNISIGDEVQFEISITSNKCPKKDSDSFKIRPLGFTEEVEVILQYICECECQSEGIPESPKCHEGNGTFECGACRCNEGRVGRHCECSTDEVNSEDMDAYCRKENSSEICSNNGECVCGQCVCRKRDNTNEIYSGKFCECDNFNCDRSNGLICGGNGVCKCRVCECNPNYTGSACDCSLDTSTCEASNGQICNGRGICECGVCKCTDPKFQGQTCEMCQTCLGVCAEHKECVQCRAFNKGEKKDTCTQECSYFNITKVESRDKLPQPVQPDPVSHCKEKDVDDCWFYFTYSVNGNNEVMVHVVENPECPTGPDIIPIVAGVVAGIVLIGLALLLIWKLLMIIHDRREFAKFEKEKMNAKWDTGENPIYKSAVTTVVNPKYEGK
Test: Binding of stapled peptides to integrin α3β1 on MDA-MB231 cells, flow cytometry with streptavidin-PerCP-Cy5.5 staining
Method: The obtained stapled peptides P1 a–g were tested for binding to integrin α3β1 expressed on human MDA‐MB231 cells (Figure S2). Upon incubation for 30 min with different concentrations of the stapled P1 a–g variants, streptavidin‐PerCP‐Cy5.5 was added after three washing steps to allow detection by flow cytometry. Peptide P2 (P1 in its disulfide cyclized form) served as a positive control, which bound with an apparent affinity of 100 nM.[23]
Binding of stapled peptides to murine 4T1 cells and human MDA-MB231 cells
Figure S2: Determination of Kd values for peptides P1a-h based on streptavidin-PerCP-Cy5.5 staining of integrin- containing cells incubated with different peptide concentrations. A: Peptides P1a-c in mouse 4T1 cells. B: P1a-c in human MDA-MB231 cells. C: Peptides P1d-h in human MDA-MB231 cells.
4T1 and MDA-MB231 cells were grown in culture according to the suppliers’ guidelines, and cells were detached by using trypsin/EDTA (PAN, diluted 1:2 with PBS). Resuspended cells in complete culture medium were centrifuged and washed once with washing buffer [HEPES (pH 7.3, 10 mM) in NaCl (0.9 %)] at 4°C and resuspended (2x10^6 cells mL-1) in peptide blocking buffer (PBB): HEPES (pH 7.3, 10 mM) in NaCl (0.9%) + KCl (5 mM), BSA (3%) + FCS (5 %) + MnCl2 (4 mM). Peptide samples were prepared at twice the final concentration in PBB and added to the cells to give final peptide concentrations of 1 nM - 3 µM. Cells (1x105 per 50 µL) were aliquoted into FACS tubes and incubated for 10 min on ice before addition of the peptide samples (50 µL). […]
PerCP-Cy5.5 (100 µL, Beckton Dickinson, 0.5 mg mL-1) in PBB. […] Cells were kept on ice until analysis with a FACS Canto instrument and 10000 events/sample were recorded. Data were evaluated with Flowing software. Gating was performed on single and live cells, and histograms of PerCP–Cy5.5 fluorescence were plotted. Kd values were calculated by fitting the data to a one-site specific binding model [Y=BmaxVX/(Kd+X)] by using GraphPad Prism, and errors represent the standard error of the fit.

[1] = Figure 2, integrin α3β1, flow cytometry binding, read-out: Kd

| SMILES | pKd [1] | pKd (integrin α3β1 expressed on human MDA-MB231 cells, 30 min incubation on ice, streptavidin-PerCP-Cy5.5, flow cytometry, one-site specific binding fit, read-out: binding affinity) |
| --- | --- | --- |
| NC(=O)C[C@@H]1NC(=O)[C@@H]2C[C@@H](O)CN2C(=O)CNC(=O)[C@H](Cc2ccc(O)c([N+](=O)[O-])c2)NC(=O)CNC(=O)[C@@H](CC(=O)O)NC(=O)[C@H](N)CSC/C=C\CSC[C@H](C(=O)NCC(=O)NCC(=O)N[C@@H](CCCCNC(=O)CCCC(=O)NCCCOCCOCCOCCCNC(=O)CCCC[C@@H]2SC[C@@H]3NC(=O)N[C@@H]32)C(N)=O)NC1=O [P1 a] (H-[dC][dD]G[Tyr(3-NO2)]G[Hyp]N[dC]GGK([Glutaryl-X1])-NH2; linker 1-8 via X2) | 4.89 | – |
| NC(=O)C[C@@H]1NC(=O)[C@@H]2C[C@@H](O)CN2C(=O)CNC(=O)[C@H](Cc2ccc(O)c([N+](=O)[O-])c2)NC(=O)CNC(=O)[C@@H](CC(=O)O)NC(=O)[C@H](N)CSCC#CCSC[C@H](C(=O)NCC(=O)NCC(=O)N[C@@H](CCCCNC(=O)CCCC(=O)NCCCOCCOCCOCCCNC(=O)CCCC[C@@H]2SC[C@@H]3NC(=O)N[C@@H]32)C(N)=O)NC1=O [P1 d] (H-[dC][dD]G[Tyr(3-NO2)]G[Hyp]N[dC]GGK([Glutaryl-X1])-NH2; linker 1-8 via X3) | – | ~5.00 |
| NC(=O)C[C@@H]1NC(=O)[C@@H]2C[C@@H](O)CN2C(=O)CNC(=O)[C@H](Cc2ccc(O)c([N+](=O)[O-])c2)NC(=O)CNC(=O)[C@@H](CC(=O)O)NC(=O)[C@H](N)CSSC[C@H](C(=O)NCC(=O)NCC(=O)N[C@@H](CCCCNC(=O)CCCC(=O)NCCCOCCOCCOCCCNC(=O)CCCC[C@@H]2SC[C@@H]3NC(=O)N[C@@H]32)C(N)=O)NC1=O [Peptide P2, reference compound] (H-[dC][dD]G[Tyr(3-NO2)]G[Hyp]N[dC]GGK([Glutaryl-X1])-NH2; disulfide 1-8) | 7.00 | – |
